Measurements from US20260116884A1, “PROTAC CHIMERIC COMPOUND, PREPARATION METHOD THEREFOR AND USE THEREOF” (HANGZHOU ZHONGMEIHUADONG PHARMACEUTICAL CO., LTD., priority 2022, published 2026).
pEC50, pIC50: −log10 of the molar value.

Tests used:
[1] = test system: IL2 activation in human PBMC; assay: IL2 activity assay (ELISA) in human PBMC; assay type: cell-based; details: CD3/CD28 antibody, 24 h
Protocol: The compound was diluted with DMSO in a dilution plate, with a maximum starting concentration of 10 μM, 8 concentration gradient points (3-fold dilution), and then added to the 96-well plate along with the addition of 5 µg/ml CD28 antibody. Incubation was performed for 24 h. • (3) The ELISA plate was washed twice with PBS, and an ELISA dilution was added at 100 µl/well. Then 100 μl of the standard and the incubated samples obtained in step 2 were added separately, and incubated for 2 h at room temperature. • (4) Each well was washed 3 times by adding with 400 μl washing buffer per well, and was finally blotted to dryness with a clean absorbent paper. • (5) 200 μl of the IL2 conjugate was added per well, covered with a fresh tape, and incubated for 2 h at room temperature. Step (4) was repeated. • (6) 200 μl of the substrate was added per well under the protection from light. The plate was incubated at room temperature for 20 min. • (7) 50 μL of a stop solution was added per well. The color of the wells should be from blue to yellow. Signals at […] were read by a microplate reader, and the signal intensity was used to characterize the activity level of IL2. EC50 values were obtained by fitting using the Prism software.

human HPK1 [2] = molecular target: T1, human HPK1 (Homo sapiens, UniProt Q92918); assay: Assay of in vitro HPK1 enzymatic activity (ADP-Glo); assay type: biochemical; details: 7 nM kinase, 20 uM ATP
Protocol: Compounds were evaluated for their ability to inhibit human HPK1 by IC50 determination using the ADP-Glo method to measure the kinase activity.
Buffer conditions of the enzyme: 50 mM Hepes (pH 7.5), 10 mM MgCl2, 1 mM EGTA, 0.01% Brij35, 2 mM DTT.
Preparation of the Kinase and substrate mixture: the working concentration of the kinase in the HPK1 reaction solution was 7 nM and the working concentration of ATP was 20 uM.
The compound was diluted with DMSO in a dilution plate, with a maximum starting concentration of 1 uM and 10 concentration gradient points (4-fold dilution).
Each of the above 10 concentration gradient points of the compound was then diluted 50-fold into the kinase reaction buffer and shaken on a shaker for 20 min. The kinase was prepared in an enzyme reaction buffer and 2 μl of the HPK1 kinase was added per well of the reaction plate at a HPK1 kinase concentration of 7 nM.
1 μl of diluted compound in the buffer was added per well, and the plate was sealed with a plate sealing film, centrifuged at 1000 g for 30 seconds, and left at room temperature for 10 minutes. An ATP solution was prepared with an enzyme reaction buffer and 2 μl of the ATP solution was added to the reaction plate (the working concentration of ATP was 20 uM). The plate was sealed with a plate sealing film, centrifuged at 1000 g for 30 seconds, and reacted at room temperature for 60 minutes. 4 μL of ADP-Glu was transferred to a 384 reaction plate, centrifuged at 1000 rpm/min for 1 min, and incubated at 25° C. for 40 min. 8 μL of the Detection solution was transferred to a 384 reaction plate, centrifuged at 1000 rpm/min for 1 min, and incubated at 25° C. for 40 min. The RLU (Relative luminescence unit) signal was read using a BMG microplate reader, and the signal intensity was used to characterize the activity level of the kinase.
The kinase activity data was expressed by comparing the kinase activity of the test compound and the blank group (containing only DMSO), and the IC50 value was obtained by curve fitting using the Prism software (GraphPad7.0).

human HPK1 [3] = molecular target: T1, human HPK1; assay: HPK1 protein degradation assay (WB) in RAMOS cell line; assay type: cell-based; parameters: The RAMOS cell line was selected as the degradation cell line; endogenous in cells; host or cells: RAMOS; details: RAMOS cells, 16 h, Western blot

T1 sequence (Q92918 whole entry): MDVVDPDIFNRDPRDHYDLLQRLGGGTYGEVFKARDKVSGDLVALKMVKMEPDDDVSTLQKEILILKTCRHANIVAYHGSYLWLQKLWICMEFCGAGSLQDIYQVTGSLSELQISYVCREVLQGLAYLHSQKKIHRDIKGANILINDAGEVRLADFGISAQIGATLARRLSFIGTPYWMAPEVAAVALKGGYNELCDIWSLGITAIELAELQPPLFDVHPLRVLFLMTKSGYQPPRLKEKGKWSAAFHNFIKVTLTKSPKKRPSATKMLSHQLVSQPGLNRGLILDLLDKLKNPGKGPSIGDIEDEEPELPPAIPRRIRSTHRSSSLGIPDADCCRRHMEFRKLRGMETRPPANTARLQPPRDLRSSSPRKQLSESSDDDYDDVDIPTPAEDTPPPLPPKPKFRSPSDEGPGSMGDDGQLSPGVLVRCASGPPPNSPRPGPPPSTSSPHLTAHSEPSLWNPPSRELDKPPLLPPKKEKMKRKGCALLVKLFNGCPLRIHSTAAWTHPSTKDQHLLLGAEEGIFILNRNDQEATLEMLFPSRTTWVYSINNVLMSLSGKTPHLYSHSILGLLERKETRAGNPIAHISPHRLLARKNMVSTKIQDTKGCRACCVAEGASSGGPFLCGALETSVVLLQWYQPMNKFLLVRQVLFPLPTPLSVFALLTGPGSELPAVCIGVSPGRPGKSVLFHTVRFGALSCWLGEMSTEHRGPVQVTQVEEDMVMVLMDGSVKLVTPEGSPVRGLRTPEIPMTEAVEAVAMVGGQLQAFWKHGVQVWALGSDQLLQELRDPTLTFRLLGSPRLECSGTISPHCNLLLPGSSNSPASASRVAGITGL

CCN1CCC(n2cc(-c3c[nH]c4ncc(-c5ccc(N6CCC(CC7CCN(C(=O)c8ccc(Cl)c(N9CCC(=O)NC9=O)c8)CC7)CC6)nc5)nc34)cn2)CC1 [Compound C024]
pEC50 [1]: 6.71 | pIC50 (human HPK1 [2]): 8.64 | DC50 (human HPK1 [3]): 2.1 nM | Dmax (human HPK1 [3]): 77%
